Legend:
[1] = molecular target: T1, Ephrin type-B receptor 4 (Homo sapiens) (UniProt P54760); assay: Selectivity interaction (KinomeScan (DiscoverX)) EUB0000666a EPHB4; conditions: at 10 µM
T1 sequence (whole entry): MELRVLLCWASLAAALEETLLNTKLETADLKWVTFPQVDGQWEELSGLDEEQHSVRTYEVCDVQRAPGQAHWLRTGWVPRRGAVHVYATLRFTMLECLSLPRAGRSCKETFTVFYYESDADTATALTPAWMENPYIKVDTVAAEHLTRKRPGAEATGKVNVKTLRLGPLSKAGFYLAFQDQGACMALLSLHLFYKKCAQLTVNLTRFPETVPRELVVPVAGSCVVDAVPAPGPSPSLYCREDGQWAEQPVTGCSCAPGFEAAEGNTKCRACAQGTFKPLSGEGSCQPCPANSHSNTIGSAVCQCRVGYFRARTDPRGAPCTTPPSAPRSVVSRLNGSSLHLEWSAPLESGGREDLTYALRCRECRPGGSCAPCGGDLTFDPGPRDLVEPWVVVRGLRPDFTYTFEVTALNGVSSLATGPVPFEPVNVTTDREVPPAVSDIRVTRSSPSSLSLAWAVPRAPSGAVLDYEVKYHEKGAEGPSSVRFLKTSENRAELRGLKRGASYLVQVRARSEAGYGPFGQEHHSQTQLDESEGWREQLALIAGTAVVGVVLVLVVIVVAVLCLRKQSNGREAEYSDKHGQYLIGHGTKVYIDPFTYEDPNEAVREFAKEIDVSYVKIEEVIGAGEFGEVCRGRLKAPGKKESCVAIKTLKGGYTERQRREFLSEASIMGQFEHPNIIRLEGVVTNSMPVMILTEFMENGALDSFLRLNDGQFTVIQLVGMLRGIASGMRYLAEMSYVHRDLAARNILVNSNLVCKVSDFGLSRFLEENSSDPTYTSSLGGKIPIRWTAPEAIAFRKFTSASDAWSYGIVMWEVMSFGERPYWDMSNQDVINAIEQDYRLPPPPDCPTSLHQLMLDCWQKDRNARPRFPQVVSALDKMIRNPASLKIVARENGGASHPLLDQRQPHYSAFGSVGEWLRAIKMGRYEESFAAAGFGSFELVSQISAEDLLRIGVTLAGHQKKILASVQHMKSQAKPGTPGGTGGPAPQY

[2] = molecular target: T2, Calcium/calmodulin-dependent protein kinase type IV (Homo sapiens) (UniProt Q16566); assay: Selectivity interaction (Kinase panel (Invitrogen)) EUB0000639a CAMK4; conditions: at 200 nM
T2 sequence (whole entry): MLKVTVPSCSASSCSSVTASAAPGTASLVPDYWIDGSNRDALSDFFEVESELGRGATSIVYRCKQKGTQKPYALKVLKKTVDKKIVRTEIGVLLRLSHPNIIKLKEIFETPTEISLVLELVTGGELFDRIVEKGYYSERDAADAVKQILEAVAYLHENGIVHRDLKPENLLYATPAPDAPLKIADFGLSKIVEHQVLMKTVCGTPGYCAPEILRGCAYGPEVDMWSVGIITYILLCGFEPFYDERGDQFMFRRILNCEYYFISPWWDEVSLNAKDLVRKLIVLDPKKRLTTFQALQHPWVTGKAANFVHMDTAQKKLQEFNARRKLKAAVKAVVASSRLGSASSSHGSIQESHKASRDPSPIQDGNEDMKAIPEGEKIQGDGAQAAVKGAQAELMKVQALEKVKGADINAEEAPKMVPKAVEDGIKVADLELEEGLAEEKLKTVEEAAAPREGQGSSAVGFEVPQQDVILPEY

[3] = molecular target: Calcium/calmodulin-dependent protein kinase kinase 2 (Homo sapiens) (UniProt Q96RR4); assay: Selectivity interaction (Kinase panel (Invitrogen)) EUB0000639a CAMKK2; conditions: at 200 nM
[4] = molecular target: T3, Inhibitor of nuclear factor kappa-B kinase subunit beta (Homo sapiens) (UniProt O14920); assay: Selectivity interaction (ActivX KiNativ screen (kinase selectivity in THP-1 cell lysates)) EUB0000639a IKBKB; assay type: subcellular; conditions: lysate, at 5 µM
T3 sequence (whole entry): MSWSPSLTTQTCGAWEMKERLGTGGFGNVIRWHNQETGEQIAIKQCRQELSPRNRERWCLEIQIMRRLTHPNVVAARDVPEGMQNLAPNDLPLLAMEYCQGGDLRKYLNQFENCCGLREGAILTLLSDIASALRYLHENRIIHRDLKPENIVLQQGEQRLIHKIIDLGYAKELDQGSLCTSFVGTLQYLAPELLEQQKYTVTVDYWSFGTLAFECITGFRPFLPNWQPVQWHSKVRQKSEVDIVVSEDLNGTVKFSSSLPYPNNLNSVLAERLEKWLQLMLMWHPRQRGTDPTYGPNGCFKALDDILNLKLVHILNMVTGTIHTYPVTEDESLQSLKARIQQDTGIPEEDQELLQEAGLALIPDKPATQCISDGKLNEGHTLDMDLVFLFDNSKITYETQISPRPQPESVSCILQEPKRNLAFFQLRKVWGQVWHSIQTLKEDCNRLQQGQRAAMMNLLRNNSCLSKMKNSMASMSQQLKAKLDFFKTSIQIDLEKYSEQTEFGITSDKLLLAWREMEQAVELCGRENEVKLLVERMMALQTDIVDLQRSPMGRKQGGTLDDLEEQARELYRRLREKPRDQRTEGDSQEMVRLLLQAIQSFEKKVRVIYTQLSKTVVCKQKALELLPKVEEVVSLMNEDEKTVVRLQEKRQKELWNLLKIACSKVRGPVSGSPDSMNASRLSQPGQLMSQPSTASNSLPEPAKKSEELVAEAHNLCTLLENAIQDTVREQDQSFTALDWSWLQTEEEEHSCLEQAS

[5] = system: Mast/stem cell growth factor receptor Kit (Homo sapiens), P10721 [A829P]; assay: (§1) Selectivity interaction (KinomeScan (DiscoverX)) EUB0001049a KIT; conditions: at 1 µM
[6] = system: Mast/stem cell growth factor receptor Kit (Homo sapiens), P10721 [D816H]; assay: as §1; conditions: at 1 µM
[7] = system: Mast/stem cell growth factor receptor Kit (Homo sapiens), P10721 [D816V]; assay: as §1; conditions: at 1 µM
[8] = system: Mast/stem cell growth factor receptor Kit (Homo sapiens), P10721 [L576P]; assay: as §1; conditions: at 1 µM
[9] = system: Mast/stem cell growth factor receptor Kit (Homo sapiens), P10721 [V559D,T670I]; assay: as §1; conditions: at 1 µM
[10] = system: Mast/stem cell growth factor receptor Kit (Homo sapiens), P10721 [V559D,V654A]; assay: as §1; conditions: at 1 µM
[11] = system: Mast/stem cell growth factor receptor Kit (Homo sapiens), P10721 [V559D]; assay: as §1; conditions: at 1 µM
[12] = molecular target: Mast/stem cell growth factor receptor Kit (Homo sapiens, UniProt P10721); assay: as §1; conditions: at 1 µM
[13] = molecular target: PAS domain-containing serine/threonine-protein kinase (Homo sapiens) (UniProt Q96RG2); assay: Selectivity interaction (Kinase screening (Nanosyn)) EUB0000604a PASK
PAS domain-containing serine/threonine-protein kinase (Homo sapiens), sequence (Q96RG2 whole entry, the tested form may be a part): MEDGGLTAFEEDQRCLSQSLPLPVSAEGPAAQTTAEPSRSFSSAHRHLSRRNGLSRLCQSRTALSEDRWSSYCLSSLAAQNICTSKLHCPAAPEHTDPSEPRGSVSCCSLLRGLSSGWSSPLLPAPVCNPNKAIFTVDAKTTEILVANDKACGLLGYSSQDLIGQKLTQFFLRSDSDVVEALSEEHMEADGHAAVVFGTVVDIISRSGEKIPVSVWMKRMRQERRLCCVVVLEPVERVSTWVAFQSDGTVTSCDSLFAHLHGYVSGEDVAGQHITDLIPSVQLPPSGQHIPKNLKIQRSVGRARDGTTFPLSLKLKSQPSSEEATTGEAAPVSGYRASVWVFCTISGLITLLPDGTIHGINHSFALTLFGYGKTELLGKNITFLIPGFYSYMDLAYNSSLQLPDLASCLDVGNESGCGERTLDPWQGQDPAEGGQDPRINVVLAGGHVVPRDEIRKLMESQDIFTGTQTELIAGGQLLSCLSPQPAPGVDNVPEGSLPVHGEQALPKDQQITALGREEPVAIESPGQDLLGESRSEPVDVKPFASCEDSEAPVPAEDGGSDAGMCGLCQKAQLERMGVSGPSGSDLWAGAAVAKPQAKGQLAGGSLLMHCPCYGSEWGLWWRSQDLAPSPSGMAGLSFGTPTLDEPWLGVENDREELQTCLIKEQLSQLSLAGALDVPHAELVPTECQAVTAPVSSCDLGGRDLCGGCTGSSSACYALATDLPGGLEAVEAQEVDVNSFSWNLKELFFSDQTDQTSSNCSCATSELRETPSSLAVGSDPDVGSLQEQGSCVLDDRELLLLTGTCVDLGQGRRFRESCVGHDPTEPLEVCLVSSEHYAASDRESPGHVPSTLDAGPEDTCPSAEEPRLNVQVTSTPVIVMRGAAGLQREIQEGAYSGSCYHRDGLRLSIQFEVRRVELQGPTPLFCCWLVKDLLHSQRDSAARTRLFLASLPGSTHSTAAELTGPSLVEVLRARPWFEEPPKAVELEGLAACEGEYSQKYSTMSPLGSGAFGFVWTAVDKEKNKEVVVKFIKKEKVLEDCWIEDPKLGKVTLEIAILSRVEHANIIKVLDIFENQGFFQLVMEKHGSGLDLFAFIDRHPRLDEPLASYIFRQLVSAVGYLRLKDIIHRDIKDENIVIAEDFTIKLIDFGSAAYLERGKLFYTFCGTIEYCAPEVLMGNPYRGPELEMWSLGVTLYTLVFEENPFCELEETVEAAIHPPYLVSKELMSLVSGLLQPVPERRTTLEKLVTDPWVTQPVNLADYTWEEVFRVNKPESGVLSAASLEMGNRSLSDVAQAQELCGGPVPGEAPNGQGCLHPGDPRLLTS

Mast/stem cell growth factor receptor Kit, sequence (P10721 whole entry, the tested form may be a part): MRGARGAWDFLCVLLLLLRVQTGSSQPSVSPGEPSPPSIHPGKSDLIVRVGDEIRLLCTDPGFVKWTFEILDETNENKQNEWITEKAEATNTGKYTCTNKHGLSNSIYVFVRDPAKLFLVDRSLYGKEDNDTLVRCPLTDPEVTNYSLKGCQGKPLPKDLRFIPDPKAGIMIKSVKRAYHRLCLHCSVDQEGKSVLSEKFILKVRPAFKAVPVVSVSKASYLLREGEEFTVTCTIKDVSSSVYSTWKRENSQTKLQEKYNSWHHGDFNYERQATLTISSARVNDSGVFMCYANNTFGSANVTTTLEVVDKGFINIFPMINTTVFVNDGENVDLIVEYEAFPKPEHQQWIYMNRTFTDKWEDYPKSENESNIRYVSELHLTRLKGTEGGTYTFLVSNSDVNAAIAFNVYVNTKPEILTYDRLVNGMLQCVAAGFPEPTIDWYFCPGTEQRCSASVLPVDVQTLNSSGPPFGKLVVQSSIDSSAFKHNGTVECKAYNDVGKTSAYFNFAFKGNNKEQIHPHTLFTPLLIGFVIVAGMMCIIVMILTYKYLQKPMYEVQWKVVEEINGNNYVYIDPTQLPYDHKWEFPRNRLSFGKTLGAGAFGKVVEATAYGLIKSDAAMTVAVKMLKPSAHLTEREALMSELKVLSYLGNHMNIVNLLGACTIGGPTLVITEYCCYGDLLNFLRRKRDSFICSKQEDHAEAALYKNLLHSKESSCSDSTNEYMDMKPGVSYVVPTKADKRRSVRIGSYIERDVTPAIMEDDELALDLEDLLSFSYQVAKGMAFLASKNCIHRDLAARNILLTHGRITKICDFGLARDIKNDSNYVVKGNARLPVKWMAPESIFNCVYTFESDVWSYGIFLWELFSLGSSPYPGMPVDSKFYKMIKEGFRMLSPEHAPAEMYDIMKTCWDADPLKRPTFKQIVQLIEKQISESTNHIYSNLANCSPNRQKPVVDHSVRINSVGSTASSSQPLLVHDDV
Mast/stem cell growth factor receptor Kit (Homo sapiens), P10721 [D816V], sequence (P10721 whole entry D816V): as the sequence (P10721 whole entry, the tested form may be a part) above, with D816V counted along it
Mast/stem cell growth factor receptor Kit (Homo sapiens), P10721 [V559D,V654A], sequence (P10721 whole entry V559D/V654A): as the sequence (P10721 whole entry, the tested form may be a part) above, with V559D, V654A counted along it
Mast/stem cell growth factor receptor Kit (Homo sapiens), P10721 [V559D], sequence (P10721 whole entry V559D): as the sequence (P10721 whole entry, the tested form may be a part) above, with V559D counted along it
Mast/stem cell growth factor receptor Kit (Homo sapiens), P10721 [V559D,T670I], sequence (P10721 whole entry V559D/T670I): as the sequence (P10721 whole entry, the tested form may be a part) above, with V559D, T670I counted along it
Mast/stem cell growth factor receptor Kit (Homo sapiens), P10721 [L576P], sequence (P10721 whole entry L576P): as the sequence (P10721 whole entry, the tested form may be a part) above, with L576P counted along it
Mast/stem cell growth factor receptor Kit (Homo sapiens), P10721 [D816H], sequence (P10721 whole entry D816H): as the sequence (P10721 whole entry, the tested form may be a part) above, with D816H counted along it
Calcium/calmodulin-dependent protein kinase kinase 2 (Homo sapiens), sequence (Q96RR4 2-588 limits assumed): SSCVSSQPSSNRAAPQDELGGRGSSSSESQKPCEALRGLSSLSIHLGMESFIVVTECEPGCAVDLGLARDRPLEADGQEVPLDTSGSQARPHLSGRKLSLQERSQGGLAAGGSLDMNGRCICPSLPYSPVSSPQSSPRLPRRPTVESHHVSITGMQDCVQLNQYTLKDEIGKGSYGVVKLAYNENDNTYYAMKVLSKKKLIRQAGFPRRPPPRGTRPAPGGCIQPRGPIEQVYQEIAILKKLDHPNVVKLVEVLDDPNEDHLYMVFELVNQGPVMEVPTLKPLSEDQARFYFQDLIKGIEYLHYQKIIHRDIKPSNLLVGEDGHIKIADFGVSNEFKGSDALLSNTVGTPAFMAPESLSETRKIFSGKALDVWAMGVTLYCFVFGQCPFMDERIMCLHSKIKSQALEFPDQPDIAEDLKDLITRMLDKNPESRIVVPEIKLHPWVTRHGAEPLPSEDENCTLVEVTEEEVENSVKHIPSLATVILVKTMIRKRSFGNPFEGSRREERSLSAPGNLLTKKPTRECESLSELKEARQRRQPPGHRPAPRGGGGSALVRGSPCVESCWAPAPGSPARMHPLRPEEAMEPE
Mast/stem cell growth factor receptor Kit (Homo sapiens), P10721 [A829P], sequence (P10721 whole entry A829P): as the sequence (P10721 whole entry, the tested form may be a part) above, with A829P counted along it

O=C(NOC[C@H](O)CO)c1ccc(F)c(F)c1Nc1ccc(I)cc1F
% of control [1]: 100%

CC[C@@H]1[C@H](F)C(=O)N[C@@H]1COc1nccc2cc(C(N)=O)c(OC)cc12 [ZIMLOVISERTIB]
% of inhibition [2]: -8.2% | % of inhibition [3]: -1.97% | % of inhibition [4]: -9.2%

COc1cc(Nc2nc(C)cc(-c3cnn4nc(OC)ccc34)n2)cc(C(F)(F)F)c1
% of control [5]: 84% | % of control [6]: 66% | % of control [7]: 96% | % of control [8]: 100% | % of control [9]: 85% | % of control [10]: 62% | % of control [11]: 80% | % of control [12]: 89%

Cc1cnc(Nc2ccc(F)cc2Cl)nc1-c1c[nH]c(C(=O)N[C@H](CO)c2cccc(Cl)c2)c1
% of inhibition [13]: 19%

Source: ChEMBL document CHEMBL5465560, “Selectivity Literature for EUbOPEN Chemogenomic Library” (2024)
